Test results as given in article PMC8305236, “New Broth Macrodilution Volatilization Method for Antibacterial Susceptibility Testing of Volatile Agents and Evaluation of Their Toxicity Using Modified MTT Assay In Vitro” (Molecules, 2021).
Converted amounts (≈) assume the structure as drawn.

How the values were obtained:
[1] = test system: Staphylococcus aureus ATCC 29213; assay: broth macrodilution volatilization method (liquid and vapor phase MIC); format: cell-based; conditions: ATCC29213, liquid phase, 37 °C, 24 h, read-out: Minimal Inhibitory Concentration, Broth
Source text: (§1) The following four bacterial standard strains from the American Type Culture Collection (ATCC, Manassas, VA, USA) were used: Haemophilus influenzae ATCC 49247, Staphylococcus aureus ATCC 29213, Streptococcus pneumoniae ATCC 49619, and Streptococcus pyogenes ATCC 19615. Cultivation and assay media (broth/agar) were Mueller–Hinton (MH) complemented by Haemophilus Tested Medium (H. influenzae), MH (S. aureus), and Brain Heart Infusion (S. pneumoniae and S. pyogenes). The pH of the broths was equilibrated to a final value of 7.6 using Trizma base (Sigma-Aldrich, Praha, Czech Republic). […] cultivation media were purchased from Oxoid (Basingstoke, UK).
(§2) Stock cultures of bacterial strains were cultivated in broth medium at 37 °C for 24 h prior to testing. For the preparation of inoculum, the turbidity of the bacterial suspension was adjusted to 0.5 McFarland standard using a Densi-La-Meter II (Lachema, Brno, Czech Republic) to obtain a final concentration of 10^8 CFU/mL.
(§3) The antibacterial potential of volatile plant-derived compounds in the liquid and vapor phases was determined using a newly developed broth macrodilution volatilization method performed in standard 2 mL microtubes with snap caps (Eppendorf, Hamburg, Germany). Initially, each sample of compound was dissolved in DMSO at maximum concentration of 1% and diluted in the appropriate broth medium. […] The concentration of β-thujaplicin started from 1024 µg/mL and from 128 µg/mL for thymohydroquinone and thymoquninone. In the second step, 90 µL of melted agar was pipetted into rims on the caps (Figure 3a) and inoculated with 5 µL of bacterial suspension after agar solidification. Subsequently, the appropriate concentrations of each sample previously prepared in test tubes were pipetted into microtubes in a final volume of 1500 µL. Then, the microtubes were inoculated with 10 µL of bacterial suspension and closed properly (Figure 3b). Microtubes containing inoculated and non-inoculated media were prepared as growth and purity controls simultaneously. After incubation at 37 °C for 24 h, the MICs were evaluated by the visual assessment of bacterial growth after coloring metabolically active bacterial colonies with MTT dye. The respective volumes of 30 and 375 µL of MTT at a concentration of 600 µg/mL were pipetted into the caps and in the microtubes when the interface of color change from yellow to purple (relative to that of colors in control wells) was recorded in broth and agar (Figure 3c). […] The MIC values were determined as the lowest concentrations that inhibited bacterial growth compared with the compound-free control and are expressed in µg/mL. In the case of the vapor phase, the concentration was also expressed in µg/cm^3 as the weight of the volatile agent per volume unit of a microtube. […] The respective susceptibilities of H. influenzae, S. aureus, S. pneumoniae, and S. pyogenes to ampicillin, oxacillin, amoxicillin, and tetracycline were checked as positive antibiotic controls. All tests were performed as three independent experiments, each carried out in triplicate, and the results were presented as median/modal values. According to the widely accepted norm in MIC testing, the mode and median were used for the final value calculation when triplicate endpoints were within the two- and three-dilution ranges, respectively.

[2] = test system: normal lung fibroblast cells MRC-5; assay: modified MTT cytotoxicity assay; conditions: 72 h, plates sealed with EVA capmat
Experimental: Lung fibroblast cell line MRC-5, obtained from ATCC, was propagated in Eagle’s Minimum Essential Medium (EMEM) supplemented with 10% fetal bovine serum (FBS), 2 mM glutamine, 10 µL/mL non-essential amino acids, and 1% penicillin–streptomycin solution (10,000 units/mL of penicillin and 10 mg/mL of streptomycin); all these components were purchased from Sigma-Aldrich. The cells were pre-incubated in 96-well microtiter plates at a density of 2.5 × 10^3 cells per well for 24 h at 37 °C in a humidified incubator in an atmosphere of 5% CO2 in air.
A modified method based on the metabolization of MTT to blue formazan by mitochondrial dehydrogenases in living lung cells previously described by Mosmann was used. The lung fibroblast cells were treated for 72 h with the tested compounds dissolved in DMSO at a maximum concentration of 1% and diluted in the EMEM medium supplemented with 10% FBS. Twelve two-fold serially diluted concentrations of these agents ranging from 512 to 0.25 µg/mL were prepared. The microtiter plates were covered with EVA capmats^TM at 37 °C in a humidified atmosphere of 5% CO2 in air and cultivated for 72 h. Thereafter, MTT reagent (1 mg/mL) in EMEM solution was added to each well and the plates were incubated for an additional 2 h at 37 °C in a humidified atmosphere of 5% CO2 in air. The media were removed, and the intracellular formazan product was dissolved in 100 µL of DMSO. […] The absorbance was measured at 555 nm using a Tecan Infinite M200 spectrometer (Tecan Group, Mannedorf, Switzerland), and the viability was calculated in comparison to that of the untreated control. Three independent experiments (two replicates each) were performed for each test. […] Furthermore, IC80 was calculated as equivalent to the MIC endpoint for comparison of microbiological and toxicological data. Therapeutic indices (TIs) were defined as the ratio of x¯ -IC80 and x¯ -MIC values with the aim of determining the amount of effective antibacterial agents with the quantity causing toxicity.

[3] = test system: Haemophilus influenzae ATCC 49247; assay: broth macrodilution volatilization method (liquid and vapor phase MIC); format: cell-based; conditions: ATCC49247, liquid phase, 37 °C, 24 h, read-out: Minimal Inhibitory Concentration, Broth
Source text: as §1, §2, §3

[4] = test system: Streptococcus pneumoniae ATCC 49619; assay: as above; format: cell-based; conditions: Streptococcus pneumoniae, ATCC49619; liquid phase, 37 °C, 24 h; read-out: Minimal Inhibitory Concentration, Broth
Source text: as §1, §2, §3

`Cc1onc(-c2ccccc2)c1C(=O)N[C@@H]1C(=O)N2[C@@H]1SC(C)(C)[C@@H]2C(=O)O` [oxacillin, reference compound] was tested, and the MIC [1] was 0.5 µg/mL (≈ 1.25 µM).

In the case of `CCC1=C[C@@H]2CN(C1)Cc1c([nH]c3ccccc13)[C@@](C(=O)OC)(c1cc3c(cc1OC)N(C)[C@H]1[C@@](O)(C(=O)OC)[C@H](OC(C)=O)[C@]4(CC)C=CCN5CC[C@]31[C@@H]54)C2` [vinorelbin, reference compound], the “IC80 ± SD” value ([2]; 80% inhibitory concentration of proliferation) is reported as >10 µg/mL and the “IC50 ± SD” value ([2]; half maximal inhibitory concentration of proliferation) is reported as 0.54 ± 0.26 µg/mL (≈ 0.693 µM).

For `CC1(C)S[C@@H]2[C@H](NC(=O)[C@H](N)c3ccccc3)C(=O)N2[C@H]1C(=O)O` [ampicillin, reference compound], the MIC [3] was 1 µg/mL (≈ 2.86 µM).

With `CC1(C)S[C@@H]2[C@H](NC(=O)[C@H](N)c3ccc(O)cc3)C(=O)N2[C@H]1C(=O)O` [amoxicillin, reference compound] the MIC [4] was 0.25 µg/mL (≈ 0.684 µM).
